The results in this text go back to PubChem BioAssay AID179 (DTP/NCI, 2004).

Activity calls are given as the source filed them.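 How the source made its calls: active means compounds giving half or more protection of infected cells from virus-caused growth loss, again on retest; inactive means the rest.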 Where a SMILES comes first, the peptide text is derived from it. [ ]: non-standard residue; d: D form. The star is where a group is joined. NMeF = CN[CH](Cc1ccccc1)C(=O)O; NMeV = CN[CH](C(=O)O)C(C)C; Boc = CC(C)(C)OC(=O)* Where only a bound is given, the exact number is not on record here.

For the experiment, the system named is CEM cells HIV-1 protection, formazan growth assay. The experiment is described as follows: NCI AIDS Antiviral Assay. The following applies: for IC50: measured here: growth of uninfected CEM cells. Put shortly:
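Human CEM cells, uninfected and HIV-1-infected, exposed to five drug concentrations; growth measured by soluble formazan assay and scored as percent protection from infection, with protecting compounds retested.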

For `CSC1=N/C(=C\c2ccccc2)C(=O)N1CN1CCOCC1`, the EC50 (as a rule, the concentration that produces a half-maximal response) is more than 200 µM and the half-inhibitory concentration (IC50) (commonly the point on the concentration scale where inhibition reaches its midpoint) turned out to be 87.1 µM.

In the case of `CC(=O)Oc1ccc(/C=C/S(=O)(=O)CS(=O)(=O)/C=C/c2ccc(OC(C)=O)c(OC(C)=O)c2)cc1OC(C)=O`, the EC50 was more than 20 µM and the IC50 is 11 µM.

For the compound `CCOc1ccccc1-n1c(-c2ccc([N+](=O)[O-])cc2)csc1=NC(=O)c1cccc([N+](=O)[O-])c1`, the EC50 was more than 200 µM and the IC50 was found to be 186 µM.

As for `O=C(c1ccccc1)N1OCCC1Nc1ccc(Br)cc1` (centres undefined), the result was inactive.

In the case of `COC(=O)c1cc(C(=O)OC)c(C/C(=N/NC(N)=S)C(=O)Nc2ccc(Cl)c(Cl)c2)nc1C/C(=N/NC(N)=S)C(=O)Nc1ccc(Cl)c(Cl)c1`, the EC50 was more than 200 µM and the IC50 is more than 200 µM.

Turning to `CC(C)C(NC(=O)OC(C)(C)C)C(=O)N(C)C(Cc1ccccc1)C(=O)N(C)C(C(=O)N(C)C(C(=O)O)C(C)C)C(C)C` (centres undefined) (Boc-V[NMeF][NMeV][NMeV]-OH; configuration not given here), the EC50 was more than 200 µM and the IC50 is more than 200 µM.

In the case of `CC1c2c(cc(=O)[nH]c2O)C(=O)N1Cc1ccccc1` (centres undefined), the EC50 is more than 347 µM and the 50% inhibitory concentration (IC50) came out at 302 µM.

`CC(=O)N1N=C(c2c(O)ccc3ccccc23)CC1c1ccc(Cl)cc1` (centres undefined): the EC50 was more than 200 µM and the IC50 stood at 25.1 µM.

Consider `COc1ccc(C(=O)O)c2c(=O)c3cccnc3[nH]c12`, for which the outcome was inactive.

For the compound `Cc1cc(NS(=O)(=O)c2ccc(N=[N+]([O-])c3ccc(S(=O)(=O)Nc4cc(C)on4)cc3)cc2)no1`, the EC50 is more than 200 µM and the IC50 was more than 200 µM.

Turning to `CC1(C)OC2[C@@H](CO[C@@]3([C@@H](O)CCO)OC(C)(C)O[C@@H]23)O1` (some centres undefined), the EC50 was more than 200 µM and the IC50 was more than 200 µM.

For the compound `CC1(C)OCC(COC(=O)C=[N+]=[N-])O1` (centres undefined), the EC50 is more than 200 µM and the IC50 was more than 200 µM.

Regarding `CC1=C(/C=C/C2=CC(=C\C(=O)O)/CC(C3=C(C)CCCC3(C)C)C2)C(C)(C)CCC1` (centres undefined), the result was inactive.

Turning to `O=c1[nH][nH]c(=O)c2nc(Nc3ccccc3)ncc12`, the EC50 is more than 28.2 µM and the IC50 is more than 28.2 µM.

For the compound `Cc1cccc(C(C)C)c1NC(=O)/C(Cc1c([N+](=O)[O-])cccc1[N+](=O)[O-])=N/NC(=O)CC#N`, the EC50 is more than 145 µM and the IC50 was more than 145 µM.

Consider `O=C(c1cc2c(C(F)(F)F)onc2c2ccccc12)C(F)(F)F`, for which the EC50 was more than 107 µM and the 50% inhibitory concentration (IC50) was 8.32 µM.

On to `O=C(NCc1ccccc1)/C(=C/c1ccccc1)NC(=O)c1ccccc1`, for which the EC50 was more than 200 µM and the half-inhibitory concentration (IC50) is more than 200 µM.

`CN(C)CCO/N=C1/C=C2CC[C@H]3[C@@H]4CC[C@H](O)[C@@]4(C)CC[C@@H]3[C@@]2(C)CC1`: the EC50 was more than 200 µM and the half-inhibitory concentration (IC50) was determined as 6.03 µM.

For `Cc1cc(N(CCC#N)S(=O)(=O)c2ccccc2)ccc1/C=C1\N=C(c2ccc(Cl)cc2)OC1=O`, the EC50 was more than 257 µM and the half-inhibitory concentration (IC50) is more than 257 µM.

`O=c1[nH]c(=O)n(C2CC(O)C(CO)O2)cc1C#Cc1cc(C(F)(F)F)cc(C(F)(F)F)c1` (centres undefined): the EC50 was more than 40.7 µM and the concentration for half-maximal inhibition (IC50) was more than 40.7 µM.

For the compound `CN(/N=C\c1ccc2ccccc2c1)C1=NCCCCN1`, the EC50 was more than 200 µM and the IC50 stood at 28.8 µM.

`O=C(Cc1nc2ccccc2o1)C(=O)Nc1ccc(Cl)cc1Cl`: the EC50 was more than 7.76 µM and the IC50 was more than 7.76 µM.

On to `COC(=O)C1C(O)CC(c2ccccn2)N(Cc2ccccc2)C1c1ccccn1` (centres undefined), for which the EC50 was more than 89.1 µM and the half-maximal inhibitory concentration (IC50) was found to be 83.2 µM.

As for `COc1ccc(C2C(C)C(=O)C(C)C(c3ccc(OC)cc3)N2N=O)cc1` (centres undefined), the EC50 is more than 19.5 µM and the 50% inhibitory concentration (IC50) is more than 19.5 µM.

With `O=C(O)c1c(CC(Cc2ccc3c(c2)CCC3)C(=O)O)ccc2c1CCC2` (centres undefined), the EC50 was more than 200 µM and the IC50 was 145 µM.

`COc1ccc(CN=C(N)N)c2ccccc12`: the EC50 is more than 200 µM and the 50% inhibitory concentration (IC50) stood at 5.13 µM.

For `CCCCc1ccc(Nc2nc(Cl)c3[nH]cnc3n2)cc1`, the EC50 was more than 200 µM and the IC50 turned out to be 26.3 µM.

With `CNC(=O)OCc1nc(SC)n(C)c1COC(=O)NC`, the EC50 is more than 708 µM and the IC50 worked out at 309 µM.

In the case of `Cc1ccc(Cc2nn(C)c(=O)n2N)cc1`, the outcome was inactive.

In the case of `CCCC(=O)O[C@@H]1C(C)C2(O)C3C=C(C)C(=O)[C@@]3(O)CC(CO)=C[C@H]2C2C(C)(C)C21OC(=O)CCC` (some centres undefined), the outcome was inactive.

Consider `C/C(=N/NC(N)=S)C(CN(C)C)C(C1=C(O)c2ccccc2OC1)c1ccccc1` (centres undefined), for which the EC50 is more than 141 µM and the concentration for half-maximal inhibition (IC50) is 107 µM.

For `O=S(=O)(c1ccc(Br)cc1)S(=O)(=O)c1ccc(Br)cc1`, the EC50 is more than 11.7 µM and the IC50 was more than 11.7 µM.

In the case of `CC[C@H]1OC(=O)[C@H](C)[C@@H](OC2CC(C)(OC)C(O)C(C)O2)[C@H](C)[C@@H](OC2OC(C)CC(N(C)C)C2OC(=O)CCC2CCCC2)[C@](C)(O)C[C@@H](C)C(=O)[C@H](C)[C@@H](O)[C@]1(C)O` (some centres undefined), the EC50 was more than 100 µM and the IC50 was determined as 40.7 µM.

With `O=C(/C=C/c1ccccc1)Oc1cccc2cccnc12`, the EC50 was more than 200 µM and the IC50 was 3.63 µM.

For the compound `NC1CC(=O)c2csc(Br)c21` (centres undefined), the EC50 was more than 57.5 µM and the 50% inhibitory concentration (IC50) is 11 µM.

Take `COC(=O)/C=C\C1C(C(=O)OC)C2(C(=O)OC)CCC1(C(=O)OC)N2` (centres undefined): the result was inactive.

With `CCOC(=O)c1nnsc1N/N=C\c1ccc([N+](=O)[O-])cc1`, the EC50 was more than 200 µM and the half-inhibitory concentration (IC50) was more than 200 µM.

Regarding `CC1(Br)C(=O)C(O)=C(Br)C1=O` (centres undefined), the EC50 was more than 200 µM and the half-maximal inhibitory concentration (IC50) was 19.5 µM.

In the case of `COc1ccc(C)cc1NC(=O)C(Br)C(Br)C(=O)O` (centres undefined), the EC50 is more than 200 µM and the IC50 was 13.5 µM.

Consider `CCC12CCC[C@@]13C=C[C@H](O3)C(C)(C)C2=O` (some centres undefined), for which the outcome was inactive.

With `O=C1C(Cl)=CC(=C2C=C(Cl)C(=O)C(Cl)=C2)C=C1Cl`, the EC50 was more than 200 µM and the IC50 amounted to 42.7 µM.

Consider `O=c1[nH]c(SCc2c(Cl)c(Cl)c(Cl)c(Cl)c2Cl)nc(=S)[nH]1`, for which the EC50 is more than 200 µM and the concentration for half-maximal inhibition (IC50) turned out to be 83.2 µM.

With `CS(=O)(=O)CS(=O)(=O)OCCCl`, the EC50 is more than 1050 µM and the IC50 amounted to 182 µM.

For the compound `Cc1[nH]nc2c1C(=O)C=C(N(CCO)c1ccccc1)C2=O`, the result was inactive.

On to `COC(NC(=O)Nc1ccccc1C)(C(F)(F)F)C(F)(F)F`, for which the EC50 is more than 200 µM and the concentration for half-maximal inhibition (IC50) turned out to be 57.5 µM.

Turning to `O=Nc1ccc2ccccc2c1N=Nc1ccccc1C(=O)O`, the EC50 is more than 200 µM and the 50% inhibitory concentration (IC50) is 182 µM.

Regarding `O=C1CSC(=Nc2ccccc2)N1c1ncccn1`, the EC50 was more than 47.9 µM and the IC50 is more than 47.9 µM.

In the case of `NC(=O)C1CCCN1C(=O)C(N)Cc1ccccc1` (stereo not drawn) (H-Phe-Pro-NH2; configuration not given here), the EC50 was more than 200 µM and the IC50 was more than 200 µM.

As to `O=C(O)CN1CCN2CCOCCOCCN(CC1)CCN(CC(=O)O)CC2`, the EC50 is more than 200 µM and the IC50 stood at 34.7 µM.

`CC1=Cc2cc3[n-]c(cc4nc(cc5[n-]c(cc1n2)c(C)c5CCC(=O)O)C(CCC(=O)O)=C4C)cc3C.[Cu+2]`: the EC50 was more than 8.71 µM and the IC50 is 7.59 µM.

As to `O=C1C2=C(c3ccccc31)C(c1ccccc1Cl)NC(=S)N2` (centres undefined), the EC50 was more than 79.4 µM and the IC50 came out at 33.1 µM.

Turning to `Cc1ccc(S(=O)(=O)N/N=C(\c2nc3ccc([N+](=O)[O-])cc3[nH]c2=O)C(O)c2ccccc2Cl)cc1` (centres undefined), the outcome was inactive.

Take `CC12CCC(=O)N1c1ccc([N+](=O)[O-])cc1N2` (centres undefined): the result was inactive.

Take `COC(=O)c1cc(=O)n(C)c2ccc(OC)cc12`: the EC50 is more than 200 µM and the 50% inhibitory concentration (IC50) amounted to 166 µM.

For the compound `COC(=O)C1CCC[C@H]2C(CO)=C(C)C(=O)[C@@H]12` (some centres undefined), the EC50 was 182 µM and the IC50 is more than 200 µM.

Regarding `Fc1ccc(N2C(=S)SC(=Nc3ccccc3)C2=Nc2ccccc2)cc1`, the EC50 is more than 200 µM and the 50% inhibitory concentration (IC50) worked out at 23.4 µM.

Regarding `Nc1ncnc2c1ncn2C1C=CC(CO)CC1` (centres undefined), the EC50 was more than 200 µM and the IC50 was more than 200 µM.

For the compound `Cc1cc(S(=O)(=O)Nc2nnc3c4ccccc4ccn23)c(S)cc1Cl`, the concentration for a half-maximal effect (EC50) is 155 µM and the 50% inhibitory concentration (IC50) was more than 200 µM.

Take `Cc1ccc(-c2nnc(-c3nn(-c4ccccc4)c4nc5ccccc5nc34)o2)cc1`: the result was inactive.

For `C/C=C/COc1cc(NC(=S)c2ccoc2C)ccc1OC`, the EC50 is 0.813 µM and the IC50 was 1.62 µM.

Turning to `CC1CN=C(Nc2ccc(F)c(Cl)c2)S1` (centres undefined), the EC50 was more than 200 µM and the IC50 worked out at 132 µM.

For the compound `O=C(O)c1ccc([N+](=O)[O-])c2cc3cnccc3nc12`, the EC50 was more than 200 µM and the concentration for half-maximal inhibition (IC50) was determined as 2.88 µM.

As to `N#Cc1ccccc1/C=N/O`, the EC50 was more than 35.5 µM and the IC50 is more than 35.5 µM.

`O=C(NCCc1ccccn1)c1ccc2cc(C(=O)N3CC(CCl)c4ccc([N+](=O)[O-])cc43)[nH]c2c1` (centres undefined): the EC50 is more than 200 µM and the half-maximal inhibitory concentration (IC50) was determined as 74.1 µM.

For the compound `O=C(CC(=O)Nc1ccc(C(=O)O)cc1)Nc1ccc(C(=O)O)cc1`, the EC50 was more than 200 µM and the half-maximal inhibitory concentration (IC50) is more than 200 µM.

Turning to `CCOC(=O)C1C(=O)C(=O)N2CCc3c([nH]c4ccccc34)C12` (centres undefined), the EC50 is more than 263 µM and the IC50 came out at 166 µM.

Consider `CC1C2(C)OC(=N)C(C#N)(C(c3ccco3)O2)C1(C#N)C#N` (centres undefined), for which the EC50 was more than 200 µM and the IC50 turned out to be 14.5 µM.

For the compound `COC(=O)C=Cc1ccc2nncnc2c1` (mixture of isomers), the EC50 was more than 200 µM and the IC50 amounted to 44.7 µM.

With `CC1(C)CC(=O)C2=C(C1)OC1=C(C(=O)CC(C)(C)C1)C2C(O)C(O)C(O)CO` (centres undefined), the EC50 was more than 200 µM and the IC50 was more than 200 µM.

For `Cn1c(/C=N/NC(=O)c2ccc(C(=O)N/N=C/c3c[n+]4ccccc4n3C)cc2)c[n+]2ccccc12`, the EC50 is 35.5 µM and the IC50 was found to be 43.7 µM.
